From patent USRE28744E, “Crystalline p-hydroxyampicillin and salts thereof” (priority 1968, dated 1976)
≈ marks a conversion by molar mass, not a printed value.

How the values were obtained:
Proteus mirabilis = assay: in vitro antibacterial screening, M.I.C., Proteus mirabilis; assay type: cell-based
Text: (§1) The four resulting hydroxypenicillins were then submitted to in vitro antibacterial screening in comparison with the two epimers of α-aminobenzylpenicillin.

clinical = details: human, urine, po, 500 mg
Experimental: (§2) The two penicillins were then compared with ampicillin in absorption studies in human volunteers. Groups of fasting volunteers were each given 500 mg. of the appropriate penicillin by mouth in capsules, and blood samples were withdrawn at regular intervals and assayed biologically to determine the serum concentration of the penicillins. The urine was also collected over a 6 hour period and similarly assayed to determine the proportion of the dose excreted via the kidneys.

Salm. typhi = assay: in vitro antibacterial screening, M.I.C., Salm. typhi; assay type: cell-based; details: for MIC: Salmonella enterica, TYPHI, read-out: M.I.C. Salm. typhi, in vitro; for M.I.C. Salm. typhi: in vitro
Text: as §1

E.Coli = assay: in vitro antibacterial screening, M.I.C., E.Coli; assay type: cell-based; details: for MIC: Escherichia coli
Text: as §1

Kleb. pneum = assay: in vitro antibacterial screening, M.I.C., Kleb. pneum; assay type: cell-based
Text: as §1

Shigella flexneri = assay: in vitro antibacterial screening, M.I.C., Shigella flexneri; assay type: cell-based; details: for MIC: Shigella flexneri
Text: as §1

Klebsiella C 978 = assay: serial dilution in nutrient agar, synergy M.I.C., Klebsiella C 978; assay type: cell-based
Experimental: (§3) Results were obtained by serial dilution in nutrient agar. The inoculum was one drop of an overnight broth culture, and M.I.C. values were read after 18 hours at 37°C.

Proteus vulgaris K = assay: serial dilution in nutrient agar, synergy M.I.C., Proteus vulgaris K; assay type: cell-based
Experimental: as §3

E. coli 37 = assay: serial dilution in nutrient agar, synergy M.I.C., E. coli 37; assay type: cell-based; details: in the presence of 100 μg./ml. Nafcillin
Experimental: as §3

Proteus morganii G = assay: serial dilution in nutrient agar, synergy M.I.C., Proteus morganii G; assay type: cell-based
Experimental: as §3

[1] = absorption studies in human volunteers (oral); details: serum, 500 mg
Experimental: as §2

Paracolon 232 = assay: serial dilution in nutrient agar, synergy M.I.C., Paracolon 232; assay type: cell-based; details: in the presence of 100 μg./ml. Methicillin
Experimental: as §3

E. coli 2 = assay: inhibition of E. coli 2; assay type: cell-based; details: Escherichia coli, product contaminated with approximately 5% of 6-aminopenicillanic acid, read-out: concentration inhibiting E. coli 2
Staph. Oxford = assay: inhibition of Staph. Oxford; assay type: cell-based; details: product contaminated with approximately 5% of 6-aminopenicillanic acid; read-out: concentration inhibiting Staph. Oxford
Gram-negative bacteria = details: 100 μg./ml.
Experimental: as §3

[2] = comparison within series; cited from earlier work
[3] = in the presence of 100 μg./ml. Dicloxacillin
[4] = in the presence of 100 μg./ml. Flucloxacillin
[5] = in the presence of 100 μg./ml. Methicillin

Question: What does the source list for `CC1(C)S[C@@H]2[C@H](NC(=O)[C@H](N)c3ccccc3)C(=O)N2[C@H]1C(=O)O` [Ampicillin, D(-)-epimer of α-aminobenzyl penicillin]?
Answer: MIC (Proteus mirabilis; Proteus mirabilis): 1.25 µg/mL (≈ 3.58 µM); dose excreted at 6 h (clinical): 42%; MIC (Salm. typhi): 0.6 µg/mL (≈ 1.72 µM); MIC (E.Coli): 5 µg/mL (≈ 14.3 µM); MIC (Kleb. pneum): 2.5 µg/mL (≈ 7.15 µM); MIC (Shigella flexneri): 12.5 µg/mL (≈ 35.8 µM)

Question: With `CC1(C)S[C@@H]2[C@H](NC(=O)[C@H](N)c3ccc(O)cc3)C(=O)N2[C@H]1C(=O)O` [Example 3, 6-[(-)α-amino-p-hydroxyphenylacetamido]Penicillanic Acid] as the compound, how does the dose excreted at 6 h (clinical) read?
Answer: Its dose excreted at 6 h is 74.5%.

Question: And the “Minimum inhibitory concentration, Klebsiella C 978” value (Klebsiella C 978; None (alone), 18 hours at 37°C)?
Answer: The value was 250 µg/mL.

Question: What about the “Minimum inhibitory concentration, Klebsiella C 978” value (Klebsiella C 978; in the presence of 100 μg./ml. Cloxacillin) of the same compound?
Answer: The value was 50 µg/mL.

Question: What about the “Minimum inhibitory concentration, Klebsiella C 978” value (Klebsiella C 978; [3]) of the same compound?
Answer: Its value is 50 µg/mL.

Question: And the “Minimum inhibitory concentration, Klebsiella C 978” value (Klebsiella C 978; [4])?
Answer: The value was 25 µg/mL.

Question: What about the “Minimum inhibitory concentration, Klebsiella C 978” value (Klebsiella C 978; [5]) of the same compound?
Answer: The value was 50 µg/mL.

Question: What about the “Minimum inhibitory concentration, Klebsiella C 978” value (Klebsiella C 978; in the presence of 100 μg./ml. Nafcillin) of the same compound?
Answer: Its value is 50 µg/mL.

Question: What about the “Minimum inhibitory concentration, Proteus vulgaris K” value (Proteus vulgaris K; None (alone), 18 hours at 37°C) of the same compound?
Answer: The value was 250 µg/mL.

Question: What about the “Minimum inhibitory concentration, Proteus vulgaris K” value (Proteus vulgaris K; [3]) of the same compound?
Answer: Its value is 2.5 µg/mL.

Question: And the “Minimum inhibitory concentration, Proteus vulgaris K” value (Proteus vulgaris K; [4])?
Answer: Its value is 5.0 µg/mL.

Question: And the “Minimum inhibitory concentration, Proteus vulgaris K” value (Proteus vulgaris K; [5])?
Answer: Its value is 50 µg/mL.

Question: And the MIC (E.Coli)?
Answer: Its MIC is 5 µg/mL (≈ 13.7 µM).

Question: What about the “Minimum inhibitory concentration, E. coli 37” value (E. coli 37) of the same compound?
Answer: The value was 2.5 µg/mL.

Question: What about the “Minimum inhibitory concentration, Proteus morganii G” value (Proteus morganii G; None (alone), 18 hours at 37°C) of the same compound?
Answer: The value was 250 µg/mL.

Question: What about the “Minimum inhibitory concentration, Proteus morganii G” value (Proteus morganii G; [3]) of the same compound?
Answer: Its value is 5.0 µg/mL.

Question: What about the “Minimum inhibitory concentration, Proteus morganii G” value (Proteus morganii G; [4]) of the same compound?
Answer: Its value is 5.0 µg/mL.

Question: What about the MIC (Shigella flexneri) of the same compound?
Answer: Its MIC is 2.5 µg/mL (≈ 6.84 µM).

Question: What about the concentration at 0.5 h [1] of the same compound?
Answer: Its concentration at 0.5 h is 2900 ng/mL.

Question: What about the concentration at 1 h [1] of the same compound?
Answer: Its concentration at 1 h is 8250 ng/mL.

Question: And the concentration at 2 h [1]?
Answer: Its concentration at 2 h is 10800 ng/mL.

Question: And the concentration at 4 h [1]?
Answer: Its concentration at 4 h is 3100 ng/mL.

Question: What about the concentration at 6 h [1] of the same compound?
Answer: The concentration at 6 h was 1130 ng/mL.

Question: What about the “Minimum inhibitory concentration, Paracolon 232” value (Paracolon 232) of the same compound?
Answer: Its value is 2.5 µg/mL.

Question: For `CC1(C)S[C@@H]2[C@H](NC(=O)[C@@H](N)c3ccc(O)cc3)C(=O)N2[C@H]1C(=O)O` [Example 4, 6[(+)α-amino-p-hydroxyphenylacetamido]penicillanic Acid], which MIC (E.Coli) is on record?
Answer: The MIC was 25 µg/mL (≈ 68.4 µM).

Question: With `CC1(C)S[C@@H]2C(NC(=O)C(N)c3cccc(O)c3)C(=O)N2[C@H]1C(=O)O` (stereo partly drawn) [Example 7, 6[(-)α-amino-m-hydroxyphenylacetamido]penicillanic Acid] as the compound, how does the “M.I.C. Proteus mirabilis” value (Proteus mirabilis; listed as m OH -) read?
Answer: The value was 2.5 µg/mL.

Question: What about the dose excreted at 6 h (clinical) of the same compound?
Answer: Its dose excreted at 6 h is 31%.

Question: And the “M.I.C. Salm. typhi” value (Salm. typhi; listed as m OH -)?
Answer: Its value is 1.25 µg/mL.

Question: And the “M.I.C. E.Coli” value (E.Coli; listed as m OH -)?
Answer: Its value is 5 µg/mL.

Question: And the “M.I.C. Kleb. pneum” value (Kleb. pneum; listed as m OH -)?
Answer: Its value is 1.25 µg/mL.

Question: And the “M.I.C. Shigella flexneri” value (Shigella flexneri; listed as m OH -)?
Answer: The value was 2.5 µg/mL.

Question: And the concentration at 0.5 h [1]?
Answer: Its concentration at 0.5 h is 910 ng/mL.

Question: What about the concentration at 1 h [1] of the same compound?
Answer: The concentration at 1 h was 2500 ng/mL.

Question: And the concentration at 2 h [1]?
Answer: The concentration at 2 h was 2860 ng/mL.

Question: What about the concentration at 4 h [1] of the same compound?
Answer: Its concentration at 4 h is 1150 ng/mL.

Question: And the concentration at 6 h [1]?
Answer: Its concentration at 6 h is 440 ng/mL.

Question: Which results are given for `CC1(C)S[C@@H]2C(NC(=O)C(N)c3cccc(O)c3)C(=O)N2[C@H]1C(=O)O` (stereo partly drawn) [Example 8, 6[(+)α-amino-m-hydroxyphenylacetamido]penicillanic Acid]?
Answer: M.I.C. Proteus mirabilis (Proteus mirabilis; listed as m OH +): 25 µg/mL; M.I.C. Salm. typhi (Salm. typhi; listed as m OH +): 12.5 µg/mL; M.I.C. E.Coli (E.Coli; listed as m OH +): 25 µg/mL; M.I.C. Kleb. pneum (Kleb. pneum; listed as m OH +): 12.5 µg/mL; M.I.C. Shigella flexneri (Shigella flexneri; listed as m OH +): 25 µg/mL

Question: For `CC1(C)S[C@@H]2[C@H](NC(=O)[C@H](N)c3ccc(OC(=O)OCc4ccccc4)cc3)C(=O)N2[C@H]1C(=O)O` [Example 12, 6-[(-)-α-amino-α-(p-benzyloxycarbonyloxyphenyl)-acetamido]penicillanic acid], which MIC (E. coli 2) is on record?
Answer: The MIC was 5 µg/mL (≈ 10 µM).

Question: And the MIC (Staph. Oxford)?
Answer: The MIC was 0.1 µg/mL (≈ 0.2 µM).

Question: For `CC1(C)S[C@@H]2[C@H](NC(=O)[C@@H](N)c3ccccc3)C(=O)N2[C@H]1C(=O)O` [None +, reference compound], which MIC (Salm. typhi) is on record?
Answer: The MIC was 2.5 µg/mL (≈ 7.15 µM).

Question: What about the MIC (E.Coli) of the same compound?
Answer: Its MIC is 12.5 µg/mL (≈ 35.8 µM).

Question: What about the MIC (Kleb. pneum) of the same compound?
Answer: Its MIC is 5 µg/mL (≈ 14.3 µM).

Question: For `Cc1onc(-c2ccccc2Cl)c1C(=O)N[C@@H]1C(=O)N2[C@@H]1SC(C)(C)[C@@H]2C(=O)O` [cloxacillin], which “inhibition of the Gram-negative bacteria by the penicillinase-resistant penicillin by itself” value (from here on “inhibition of the Gram-negative bacteria”) (Gram-negative bacteria) is on record?
Answer: The value was “None of these penicillinase-resistant penicillins by itself inhibits the Gram-negative bacteria at 100 μg./ml”.

Question: Which results are given for `Cc1onc(-c2c(Cl)cccc2Cl)c1C(=O)N[C@@H]1C(=O)N2[C@@H]1SC(C)(C)[C@@H]2C(=O)O` [dicloxacillin]?
Answer: inhibition of the Gram-negative bacteria by the penicillinase-resistant penicillin by itself (Gram-negative bacteria): None of these penicillinase-resistant penicillins by itself inhibits the Gram-negative bacteria at 100 μg./ml.; oral absorption of known penicillins (in words) [2]: better absorbed than cloxacillin

Question: With `Cc1onc(-c2c(F)cccc2Cl)c1C(=O)N[C@@H]1C(=O)N2[C@@H]1SC(C)(C)[C@@H]2C(=O)O` [flucloxacillin] as the compound, how does the “inhibition of the Gram-negative bacteria” value (Gram-negative bacteria) read?
Answer: The value was “None of these penicillinase-resistant penicillins by itself inhibits the Gram-negative bacteria at 100 μg./ml”.

Question: Which “inhibition of the Gram-negative bacteria” value (Gram-negative bacteria) does the source give for `COc1cccc(OC)c1C(=O)N[C@@H]1C(=O)N2[C@@H]1SC(C)(C)[C@@H]2C(=O)O` [methicillin] here?
Answer: Its value is “None of these penicillinase-resistant penicillins by itself inhibits the Gram-negative bacteria at 100 μg./ml”.

Question: For `CCOc1ccc2ccccc2c1C(=O)N[C@@H]1C(=O)N2[C@@H]1SC(C)(C)[C@@H]2C(=O)O` [nafcillin], which “inhibition of the Gram-negative bacteria” value (Gram-negative bacteria) is on record?
Answer: Its value is “None of these penicillinase-resistant penicillins by itself inhibits the Gram-negative bacteria at 100 μg./ml”.
